Data published in US20020022633A1, “Inhibitors of prenyl-protein transferase” (priority 2000, published 2002).
Counter-ions that a name gives are not always drawn.

Target: T1, human FPTase (Homo sapiens, UniProt P49354+P49356)
T1 construct: made in house
Assay: In vitro inhibition of ras farnesyl transferase (FPTase transferase assay)
Assay type: biochemical
Conditions: recombinant FPTase; 650 nM Ras-CVLS, 100 nM farnesyl diphosphate; 30° C.; read-out: IC50, inhibitory activity against human FPTase
Procedure: In vitro Inhibition of ras Farnesyl Transferase
Transferase Assays. Isoprenyl-protein transferase activity assays are carried out at 30° C. unless noted otherwise. A typical reaction contains (in a final volume of 50 µL): [^3H]farnesyl diphosphate, Ras protein , 50 mM HEPES, pH 7.5, 5 mM MgCl2, 5 mM dithiothreitol, 10 μM ZnCl2, 0.1% polyethyleneglycol (PEG) (15,000-20,000 mw) and isoprenyl-protein transferase. The FPTase employed in the assay is prepared by recombinant expression as described in Omer, C. A., Kral, A. M., Diehl, R. E., Prendergast, G. C., Powers, S., Allen, C. M., Gibbs, J. B. and Kohl, N. E. (1993) Biochemistry 32:5167-5176. After thermally pre-equilibrating the assay mixture in the absence of enzyme, reactions are initiated by the addition of isoprenyl-protein transferase and stopped at timed intervals (typically 15 min) by the addition of 1 M HCl in ethanol (1 mL). The quenched reactions are allowed to stand for 15 m (to complete the precipitation process). After adding 2 mL of 100% ethanol, the reactions are vacuum-filtered through Whatman GFIC filters. Filters are washed four times with 2 mL aliquots of 100% ethanol, mixed with scintillation fluid (10 mL) and then counted in a Beckman LS3801 scintillation counter. […]

IC50: ≤ 30 µM
SMILES: N#Cc1ccc2cc1Oc1ccc3ccc(=O)n(c3c1)-c1ccc(cn1)CCc1cncn1C2 [Example 1, 17-Oxo-22,23-dihydro-5H-12,14:18,21-dietheno-6,10-metheno-benzo[d]imidazo [4,3-l][1,5,7,13]oxatriazacyclononadecine-9-carbonitrile dihydrochloride]
